Data from patent publication US9370587B2, “Coloring substance for diagnostic ophtalmologic use” (IROS R.C. S.r.l., priority 2012, dated 2016).
“Also recorded” adds a separate entry of the source.

Columns and labels:
[1] = tested on: epithelial cells; assay: Staining behaviour on tear film and corneal epithelial cells
[2] = Tolerability of topical use on the eye; assay type: in vivo, human; settings: topical ocular use

penetration into cells [1]: does not penetrate into the cells
Structure (SMILES): Cc1cc2nc3c(=O)[nH]c(=O)nc-3n(C[C@H](O)[C@H](O)[C@H](O)CO)c2cc1C [riboflavin]
harmfulness / side effects on the eye [2]: not harmful to the human eye; also recorded: side no effects; also recorded: absence of toxic effects on the corneal epithelium
